The text below walks through data of patent US20040229219A1 (priority 2003, published 2004).

Series [1] concerns measles virus. The note with it: cited from earlier work.
For series [2], the system named is L2 cells.
Series [3] deals with HIV-1. The note with it: cited from earlier work.

Consider “carbobenzoxy derivative of phenylalanine-phenylalanine-glycine [z-FFG]”, for which the “activity against measles virus” value in series [1] is given as “effective”.
With `CC[C@H](C)[C@H](NC(=O)[C@H](CC(C)C)NC(=O)[C@H](CC(C)C)NC(=O)[C@H](Cc1c[nH]c2ccccc12)NC(=O)[C@@H](NC(=O)[C@H](Cc1ccc(O)cc1)NC(=O)[C@H](Cc1c[nH]c2ccccc12)NC(=O)[C@@H]1CCCN1C(=O)[C@H](Cc1c[nH]c2ccccc12)NC(=O)[C@H](CCCCN)NC(=O)[C@@H](NC(=O)[C@H](Cc1ccc(O)cc1)NC(=O)[C@H](CCSC)NC(=O)[C@H](CCC(=O)O)NC(=O)[C@H](Cc1ccc(O)cc1)NC(=O)[C@@H](NC(=O)CNC(=O)[C@@H](NC(=O)[C@H](CCC(=O)O)NC(=O)[C@H](CCCCN)NC(=O)[C@H](CC(C)C)NC(=O)[C@H](CC(N)=O)NC(=O)[C@@H](NC(=O)[C@H](Cc1ccc(O)cc1)NC(=O)[C@H](CO)NC(=O)[C@H](CCC(=O)O)NC(=O)[C@H](CC(N)=O)NC(=O)[C@H](CC(C)C)NC(=O)[C@H](CCCCN)NC(=O)[C@H](CCCCN)NC(=O)[C@@H](NC(=O)[C@H](C)NC(=O)[C@H](CC(=O)O)NC(=O)[C@H](CCC(N)=O)NC(=O)[C@@H](NC(=O)[C@@H](N)CCCNC(=N)N)[C@@H](C)CC)[C@@H](C)CC)[C@@H](C)CC)C(C)C)[C@@H](C)O)C(C)C)C(C)C)C(=O)O` [SEQ ID NO: 52], in series [2], the “non-specific cytotoxic effects of the peptide on cells (morphology)” value is “normal morphology”.
enfuvirtide: the “concentration range that suppresses HIV-1 infection” value in series [3] is listed as “nanomolar range”.
